# Source: paper PMC8352984, “Estrogen mediates sex differences in preoptic neuropeptide and pituitary hormone production in medaka” (Communications Biology, 2021)
# How the values were obtained:
# Type in all cases: cell-based, medaka (Oryzias latipes)
# [1] = system: luteinizing hormone β subunit (lhb) gene expression; experiment: Ex vivo pituitary organ culture, real-time PCR of lhb; details: for lhb expression (in words): 10^-5 M, 24 h, 25 °C, vs vehicle;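 on lhb expression (Fig. 8, lhb): relative expression with female control samples set to 1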
# From the text: (§1) Fig. 8 Pacap and Vip have pleiotropic effects on the expression of anterior pituitary hormones. The effects of Pacap and Vip on gene expression levels of follicle-stimulating hormone β subunit (fshb), luteinizing hormone β subunit (lhb), thyroid-stimulating hormone β subunit (tshb), growth hormone (gh), somatolactin (sl), prolactin (prl), and pro-opiomelanocortin (pomc) were investigated by using male and female pituitaries cultured ex vivo (n = 6 per group, except male pituitary supplemented with Vip, where n = 5). Data were expressed as means with error bars representing standard error of the mean. Statistical differences were assessed by Dunnett’s post-hoc test. *p < 0.05; **p < 0.01; ***p < 0.001.
# (§2) The pituitaries from five male or female fish were pooled for each sample and cultured ex vivo in Leibovitz’s L-15 medium supplemented with 5% charcoal-stripped fetal bovine serum as described elsewhere. The medium was further supplemented with 10^−5 M medaka Pacap or Vip, or vehicle alone. After 24 h of culture at 25 °C, the pituitaries were processed for total RNA extraction and cDNA synthesis by using the RNeasy Plus Micro Kit (Qiagen) and SuperScript VILO cDNA Synthesis Kit (Thermo Fisher Scientific), respectively. Real-time PCR was performed on the LightCycler 480 System II using LightCycler 480 SYBR Green I Master (Roche Diagnostics). The cycle conditions were: 95 °C for 5 min followed by 45 cycles of 95 °C for 10 sec, 60 °C for 10 sec and 72 °C for 10 sec. Melting curve analysis was performed as described above. Data were normalized to the geometric mean of three reference genes, actb, gapdh (encoding glyceraldehyde-3-phosphate dehydrogenase; National BioResource Project (NBRP) Medaka clone ID olbrno9_f15) and rpl13 (encoding ribosomal protein L13; NBRP Medaka clone ID olovano51_b24), according to Vandesompele et al.[63]. The primers used for real-time PCR are listed in Supplementary Table 3.
# [2] = system: follicle-stimulating hormone β subunit (fshb) gene expression; experiment: Ex vivo pituitary organ culture, real-time PCR of fshb;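 on fshb expression (Fig. 8, fshb): relative expression with female control samples set to 1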
# From the text: as §1, §2
# [3] = system: medaka Adcyap1r1b; experiment: Receptor activation assay, cAMP-responsive luciferase in COS-7 cells; details: COS-7 cells
# From the text: (§3) The number at each node indicates bootstrap values for 1000 replicates. Scale bar represents 0.1 substitutions per site. SCTR, secretin receptor. For species names and GenBank accession numbers, see Supplementary Table 2. b Ability of Pacap and Vip to activate medaka Pacap/Vip receptors. […] Representative sections of pituitary at different levels along the anterior–posterior axis are shown. Arrowheads indicate expression signals. […] Scale bars represent 50 μm. f Identity of the pituitary cells expressing each Pacap/Vip receptor. The spatial expression pattern of each receptor was compared with that of each pituitary hormone gene in the RPD and PI. Left and middle panels show images of the expression of the indicated receptor (adcyap1r1a, adcyap1r1b, or vipr2b; green) and pituitary hormone gene (sl, prl, or pomc; magenta) in the same sections; right panels show the merged images with nuclear counterstaining (blue). […] Scale bars represent 20 μm. Quantitative data were expressed as means with error bars representing standard error of the mean. […] PI pars intermedia, PPD proximal pars distalis, RPD rostral pars distalis.
# (§4) Receptor activation assay was performed essentially as described previously. Medaka Pacap (38 amino acids) and Vip (28 amino acids) polypeptides with amidated C termini were synthesized by Scrum (Tokyo, Japan). cDNA fragments encoding the full-length Adcyap1r1a (GenBank accession number XM_023965124), Adcyap1r1b (XM_011474272), Vipr1a (XM_023950180), Vipr1b (XM_004079106), Vipr2a (XM_023950048) and Vipr2b (XM_023965399) were PCR-amplified and subcloned into the expression vector pcDNA3.1/V5-His-TOPO (Thermo Fisher Scientific). Each of the resulting receptor expression constructs was transiently transfected into COS-7 cells (obtained from and authenticated by Riken BRC Cell Bank), together with the cAMP-responsive luciferase reporter vector pGL4.29 (Promega) and the internal control vector pGL4.74 (Promega) at a ratio of 11:18:1 for 6 h by using Lipofectamine LTX and Plus reagent (Thermo Fisher Scientific). Forty-two hours after transfection, cells were stimulated with Pacap or Vip at doses of 0, 10^−11, 10^−10, 10^−9, 10^−8, 10^−7, 10^−6 and 10^−5 M for 6 h. After cell lysis, luciferase activity was measured by using the Dual-Luciferase Reporter Assay System (Promega). Each assay was performed in triplicate and repeated three times independently.
# [4] = system: medaka Vipr1a; experiment: as above
# From the text: as §3, §4
# [5] = system: medaka Adcyap1r1a; experiment: as above; details: COS-7 cells
# From the text: as §3, §4
# [6] = system: medaka Vipr1b; experiment: as above; details: COS-7 cells
# From the text: as §3, §4
# [7] = system: medaka Vipr2a; experiment: as above
# From the text: as §3, §4
# [8] = system: medaka Vipr2b; experiment: as above
# From the text: as §3, §4
# [9] = system: pro-opiomelanocortin (pomc) gene expression; experiment: Ex vivo pituitary organ culture, real-time PCR of pomc;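 on pomc expression (Fig. 8, pomc): relative expression with female control samples set to 1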
# From the text: as §1, §2
# [10] = 6 h stimulation, 10^-11 to 10^-5 M, luciferase, triplicate, repeated three times, read-out: half-maximal effective concentration (EC50)
# [11] = COS-7 cells, 6 h stimulation, 10^-11 to 10^-5 M, luciferase, triplicate, repeated three times, read-out: half-maximal effective concentration (EC50)
substance,measurement,setting,value
vasoactive intestinal peptide [Vip],lhb expression (in words),[1]; female pituitaries,no significant effect
same,"lhb expression (Fig. 8, lhb)","[1]; female, replicate 1",0.807
same,"lhb expression (Fig. 8, lhb)","[1]; female, replicate 2",0.719
same,"lhb expression (Fig. 8, lhb)","[1]; female, replicate 3",1.380
same,"lhb expression (Fig. 8, lhb)","[1]; female, replicate 4",0.757
same,"lhb expression (Fig. 8, lhb)","[1]; female, replicate 5",0.750
same,"lhb expression (Fig. 8, lhb)","[1]; female, replicate 6",0.836
same,lhb expression (in words),[1]; male pituitaries,no significant effect
same,"lhb expression (Fig. 8, lhb)","[1]; male, replicate 1",1.203
same,"lhb expression (Fig. 8, lhb)","[1]; male, replicate 2",1.004
same,"lhb expression (Fig. 8, lhb)","[1]; male, replicate 3",1.517
same,"lhb expression (Fig. 8, lhb)","[1]; male, replicate 5",0.870
same,"lhb expression (Fig. 8, lhb)","[1]; male, replicate 6",0.512
same,fshb expression (in words),"[2]; female pituitaries, 10^-5 M, 24 h, 25 °C, vs vehicle",significantly reduced
same,"fshb expression (Fig. 8, fshb)","[2]; female, replicate 1",0.539
same,"fshb expression (Fig. 8, fshb)","[2]; female, replicate 2",0.835
same,"fshb expression (Fig. 8, fshb)","[2]; female, replicate 3",0.607
same,"fshb expression (Fig. 8, fshb)","[2]; female, replicate 4",0.498
same,"fshb expression (Fig. 8, fshb)","[2]; female, replicate 5",0.542
same,"fshb expression (Fig. 8, fshb)","[2]; female, replicate 6",0.944
same,"fshb expression (Fig. 8, fshb)","[2]; male, replicate 1",0.537
same,"fshb expression (Fig. 8, fshb)","[2]; male, replicate 2",0.688
same,"fshb expression (Fig. 8, fshb)","[2]; male, replicate 3",0.453
same,"fshb expression (Fig. 8, fshb)","[2]; male, replicate 5",0.338
same,"fshb expression (Fig. 8, fshb)","[2]; male, replicate 6",0.319
same,"receptor activation, increase in intracellular cAMP levels (in words)",[3]; 6 h,dose-dependently activated all six receptors
same,EC50,[3]; [10],17.8 nM
same,potency of Pacap and Vip compared (in words),[4],fairly similar potencies
same,"receptor activation, increase in intracellular cAMP levels (in words)","[4]; COS-7 cells, 6 h",dose-dependently activated all six receptors
same,EC50,[4]; [11],0.427 nM
same,"receptor activation, increase in intracellular cAMP levels (in words)",[5]; 6 h,dose-dependently activated all six receptors
same,EC50,[5]; [10],32.3 nM
same,"receptor activation, increase in intracellular cAMP levels (in words)",[6]; 6 h,dose-dependently activated all six receptors
same,EC50,[6]; [10],0.728 nM
same,potency of Pacap and Vip compared (in words),[7],fairly similar potencies
same,"receptor activation, increase in intracellular cAMP levels (in words)","[7]; COS-7 cells, 6 h",dose-dependently activated all six receptors
same,EC50,[7]; [11],2430 nM
same,potency of Pacap and Vip compared (in words),[8],fairly similar potencies
same,"receptor activation, increase in intracellular cAMP levels (in words)","[8]; COS-7 cells, 6 h",dose-dependently activated all six receptors
same,EC50,[8]; [11],4310 nM
same,"pomc expression (Fig. 8, pomc)","[9]; female, replicate 1",1.053
same,"pomc expression (Fig. 8, pomc)","[9]; female, replicate 2",1.048
same,"pomc expression (Fig. 8, pomc)","[9]; female, replicate 3",0.787
same,"pomc expression (Fig. 8, pomc)","[9]; female, replicate 4",1.201
same,"pomc expression (Fig. 8, pomc)","[9]; female, replicate 5",1.189
same,"pomc expression (Fig. 8, pomc)","[9]; female, replicate 6",1.854
same,pomc expression (in words),"[9]; male pituitaries, 10^-5 M, 24 h, 25 °C, vs vehicle",no significant effect
same,"pomc expression (Fig. 8, pomc)","[9]; male, replicate 1",3.570
same,"pomc expression (Fig. 8, pomc)","[9]; male, replicate 2",3.612
same,"pomc expression (Fig. 8, pomc)","[9]; male, replicate 3",5.174
same,"pomc expression (Fig. 8, pomc)","[9]; male, replicate 5",6.158
same,"pomc expression (Fig. 8, pomc)","[9]; male, replicate 6",3.870
